Results published in patent US5712273A, “Amino acid derivatives, processes for the manufacture thereof and pharmaceutical compositions (II) containing these compounds” (Boehringer Ingelheim GmbH, priority 1994, dated 1998).
Where two headings read alike, the source gives them in different places.

Experiments:
[1] = molecular target: T1, NK1-receptor (substance P-receptor) (Homo sapiens, UniProt P25103); assay: NK1-receptor (substance P-receptor) affinity: displacement of 125I-labelled substance P on IM-9 cells; assay type: binding
T1 construct: cloned NK1 -receptors on human lymphoblastoma cells (IM-9); endogenous in cells; host or cells: IM-9 human lymphoblastoma cells
T1 sequence (P25103 whole entry): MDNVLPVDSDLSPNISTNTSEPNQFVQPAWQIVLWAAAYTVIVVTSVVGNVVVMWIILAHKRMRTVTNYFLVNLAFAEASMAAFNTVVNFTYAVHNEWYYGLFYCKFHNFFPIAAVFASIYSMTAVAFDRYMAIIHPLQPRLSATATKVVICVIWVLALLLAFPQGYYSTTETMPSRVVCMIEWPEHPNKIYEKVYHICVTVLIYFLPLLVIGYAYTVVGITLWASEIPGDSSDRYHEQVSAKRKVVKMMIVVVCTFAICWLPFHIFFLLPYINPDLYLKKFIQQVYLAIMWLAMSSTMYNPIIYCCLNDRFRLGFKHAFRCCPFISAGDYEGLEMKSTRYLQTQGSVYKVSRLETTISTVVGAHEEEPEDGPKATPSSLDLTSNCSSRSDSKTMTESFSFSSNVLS
Method: (§1) The receptor affinity at the NK1 -receptor (substance P-receptor) was determined with cloned NK1 -receptors on human lymphoblastoma cells (IM-9), whereby the displacement of ^125 I-labelled substance P is measured. The NK2 -binding test is carried out on transfixed A20 cells which represent the human NK2 receptor. The displacement of ^125 I-BN-neusolinine A is determined.

human NK2 receptor = molecular target: T2, human NK2 receptor (Homo sapiens, UniProt P21452); assay: NK2-binding test: displacement of 125I-labelled ligand on A20 cells which represent the human NK2 receptor; settings: transfixed A20 cells (human NK2 receptor); displacement of 125I-BN-neusolinine A
T2 construct: expressed in transfected cells; host or cells: A20 cells
T2 sequence (P21452 1-398): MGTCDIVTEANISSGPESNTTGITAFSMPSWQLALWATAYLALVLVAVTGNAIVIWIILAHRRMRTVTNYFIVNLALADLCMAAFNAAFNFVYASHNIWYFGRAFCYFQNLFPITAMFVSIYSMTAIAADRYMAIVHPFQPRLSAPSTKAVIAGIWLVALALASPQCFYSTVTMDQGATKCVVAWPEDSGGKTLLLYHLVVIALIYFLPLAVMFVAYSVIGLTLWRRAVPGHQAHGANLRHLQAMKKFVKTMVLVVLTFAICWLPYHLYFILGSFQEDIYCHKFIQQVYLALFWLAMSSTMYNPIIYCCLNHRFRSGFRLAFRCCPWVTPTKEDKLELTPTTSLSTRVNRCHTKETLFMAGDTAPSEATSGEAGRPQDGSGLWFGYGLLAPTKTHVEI
Method: as §1

[2] = cloned NK1-receptors on human lymphoblastoma cells (IM-9), displacement of 125I-labelled substance P, read-out: NK1 IC50

Row | IC50 [1, 2] [nM] | IC50 (human NK2 receptor) [nM] | Compound | IC50 [1] [nM]
1 | 3.1 | 21 | COc1ccccc1N1CCN(C(=O)[C@H](Cc2ccc3ccccc3c2)NC(=O)[C@@H]2C[C@@H](O)CN2C(=O)C2C(=O)C3(C)CCC2C3(C)C)CC1 (single isomer, unassigned) [Compound 1] | 
2 | 3.6 | 21 | Cc1ccccc1CN(C)C(=O)[C@H](Cc1c[nH]c2ccccc12)NC(=O)[C@@H]1C[C@@H](O)CN1C(=O)C1C(=O)C2(C)CCC1C2(C)C (single isomer, unassigned) [Compound 2] | 
3 | 3 | 65 | Cc1ccccc1N1CCN(C(=O)[C@H](Cc2ccc3ccccc3c2)NC(=O)[C@@H]2C[C@@H](O)CN2C(=O)C2C(=O)C3(C)CCC2C3(C)C)CC1 (stereo partly drawn) [Compound 3] | 
4 | 5 | 110 | CC(C)c1ccccc1N1CCN(C(=O)[C@H](Cc2ccc3ccccc3c2)NC(=O)[C@@H]2C[C@@H](O)CN2C(=O)C2C(=O)C3(C)CCC2C3(C)C)CC1 (stereo partly drawn) [Compound 4] | 
5 | 11 | 117 | COc1ccc(N2CCN(C(=O)[C@H](Cc3ccc4ccccc4c3)NC(=O)[C@@H]3C[C@@H](O)CN3C(=O)C3C(=O)C4(C)CCC3C4(C)C)CC2)c(C)c1 (stereo partly drawn) [Compound 5] | 
6 | 45 |  | CC12CCC(C(C(=O)N3C[C@H](O)C[C@H]3C(=O)N[C@@H](Cc3ccc4ccccc4c3)C(=O)N3CCN(c4ccccn4)CC3)C1=O)C2(C)C (stereo partly drawn) [Compound 6] | 
7 | 0.45 | 44 | CCOC(=O)c1ccccc1N1CCN(C(=O)[C@H](Cc2ccc3ccccc3c2)NC(=O)[C@@H]2C[C@@H](O)CN2C(=O)C2C(=O)C3(C)CCC2C3(C)C)CC1 (stereo partly drawn) [Compound 7] | 
8 | 3 | 18 | CC12CCC(C(C(=O)N3C[C@H](O)C[C@H]3C(=O)N[C@@H](Cc3ccc4ccccc4c3)C(=O)N3CCN(c4ccccc4Cl)CC3)C1=O)C2(C)C (stereo partly drawn) [Compound 8] | 
9 | 17 |  | CC12CCC(C(C(=O)N3C[C@H](O)C[C@H]3C(=O)N[C@@H](Cc3ccc4ccccc4c3)C(=O)N3CCN(C4CCCCC4)CC3)C1=O)C2(C)C (stereo partly drawn) [Compound 9] | 
10 | 200 |  | CC12CCC(C(C(=O)N3C[C@H](O)C[C@H]3C(=O)N[C@@H](Cc3ccc4ccccc4c3)C(=O)N3CCN(C(c4ccc(F)cc4)c4ccc(F)cc4)CC3)C1=O)C2(C)C (stereo partly drawn) [Compound 10] | 
11 | 3.2 |  | CC12CCC(C(C(=O)N3C[C@H](O)C[C@H]3C(=O)N[C@@H](Cc3ccc4ccccc4c3)C(=O)N3CCN(c4ccccc4[N+](=O)[O-])CC3)C1=O)C2(C)C (stereo partly drawn) [Compound 11] | 
12 | 5.6 |  | CC12CCC(C(C(=O)N3C[C@H](O)C[C@H]3C(=O)N[C@@H](Cc3ccc4ccccc4c3)C(=O)N3CCN(c4ccccc4O)CC3)C1=O)C2(C)C (stereo partly drawn) [Compound 12] | 
13 | 105 | 780 | CC12CCC(C(C(=O)N3C[C@H](O)C[C@H]3C(=O)N[C@@H](Cc3ccc4ccccc4c3)C(=O)N3CCN(c4ccc5ccccc5c4)CC3)C1=O)C2(C)C (stereo partly drawn) [Compound 13] | 
14 | 3.1 | 240 | CSc1ccccc1N1CCN(C(=O)[C@H](Cc2ccc3ccccc3c2)NC(=O)[C@@H]2C[C@@H](O)CN2C(=O)C2C(=O)C3(C)CCC2C3(C)C)CC1 (stereo partly drawn) [Compound 14] | 
15 | 3.2 | 38 | CCOc1ccccc1N1CCN(C(=O)[C@H](Cc2ccc3ccccc3c2)NC(=O)[C@@H]2C[C@@H](O)CN2C(=O)C2C(=O)C3(C)CCC2C3(C)C)CC1 (stereo partly drawn) [Compound 15] | 
16 | 0.7 | 19 | CC12CCC(C(C(=O)N3C[C@H](O)C[C@H]3C(=O)N[C@@H](Cc3ccc4ccccc4c3)C(=O)N3CCN(c4ccccc4C#N)CC3)C1=O)C2(C)C (stereo partly drawn) [Compound 16] | 

Row | IC50 [1, 2] [nM] | IC50 (human NK2 receptor) [nM] | Compound | IC50 [1] [nM]
17 | 7 | 93 | COc1ccccc1N1CCN(C(=O)[C@H](Cc2ccc3ccccc3c2)NC(=O)[C@@H]2C[C@@H](O)CN2C(=O)C2C3CC4C(C3=O)C42)CC1 (stereo partly drawn) [Compound 17] | 
18 | 8 | 16 | COc1ccccc1N1CCN(C(=O)[C@H](Cc2ccc3ccccc3c2)NC(=O)[C@@H]2C[C@@H](O)CN2C(=O)C2C3CCC(C)(C2O)C3(C)C)CC1 (stereo partly drawn) [Compound 18] | 
19 | 26 | 600 | COc1ccccc1N1CCN(C(=O)[C@H](Cc2ccc3ccccc3c2)NC(=O)[C@@H]2C[C@@H](O)CN2C(=O)C2CC3C=CC2(OC)CC3)CC1 (stereo partly drawn) [Compound 19] | 
20 | 26 | 350 | COc1ccccc1N1CCN(C(=O)[C@H](Cc2ccc3ccccc3c2)NC(=O)[C@@H]2C[C@@H](O)CN2S(=O)(=O)CC23CCC(CC2=O)C3(C)C)CC1 (stereo partly drawn) [Compound 20] | 
21 | 20 | 130 | COc1ccccc1N1CCN(C(=O)[C@H](Cc2ccc3ccccc3c2)NC(=O)[C@@H]2C[C@@H](O)CN2C(=O)C2CCCCC2O)CC1 (stereo partly drawn) [Compound 21] | 
22 | 14 | 140 | COc1ccccc1N1CCN(C(=O)[C@H](Cc2ccc3ccccc3c2)NC(=O)[C@@H]2C[C@@H](O)CN2C(=O)C2CC3CCC2(OC)CC3)CC1 (stereo partly drawn) [Compound 23] | 
23 | 3.3 | 1240 | COc1ccccc1N1CCN(C(=O)[C@H](Cc2ccc3ccccc3c2)NC(=O)[C@@H]2C[C@@H](O)CN2C(=O)C23CCC(C)(C(=O)O2)C3(C)C)CC1 (stereo partly drawn) [Compound 24] | 
24 | 18 | 880 | COc1ccccc1N1CCN(C(=O)[C@H](Cc2ccc3ccccc3c2)NC(=O)[C@@H]2C[C@@H](O)CN2C(=O)C2CCCCC2=O)CC1 (stereo partly drawn) [Compound 25] | 
25 | 28 |  | CC12CCC(C(C(=O)N3C[C@H](O)C[C@H]3C(=O)N[C@@H](Cc3c[nH]c4ccccc34)C(=O)N3CCN(c4ccccc4C#N)CC3)C1=O)C2(C)C (stereo partly drawn) [Compound 26] | 
26 | 0.5 | 450 | CN(Cc1ccccc1)C(=O)[C@H](Cc1ccc2ccccc2c1)NC(=O)[C@@H]1C[C@@H](O)CN1C(=O)C1C(=O)C2(C)CCC1C2(C)C (stereo partly drawn) [Compound 27] | 
27 | 23 | 1500 | COc1ccccc1CN1C(=O)C(NC(=O)[C@@H]2C[C@@H](O)CN2C(=O)C2C(=O)C3(C)CCC2C3(C)C)Cc2cc(OC)c(OC)cc21 (stereo partly drawn) [Compound 28] | 
28 | 1.2 | 54 | CN(Cc1ccccc1Cl)C(=O)[C@H](Cc1c[nH]c2ccccc12)NC(=O)[C@@H]1C[C@@H](O)CN1C(=O)C1C(=O)C2(C)CCC1C2(C)C (stereo partly drawn) [Compound 42] | 
29 | 1.2 | 21 | CN(Cc1ccccc1Br)C(=O)[C@H](Cc1c[nH]c2ccccc12)NC(=O)[C@@H]1C[C@@H](O)CN1C(=O)C1C(=O)C2(C)CCC1C2(C)C (stereo partly drawn) [Compound 43] | 
30 | 5.1 | 39 | CCc1ccccc1CN(C)C(=O)[C@H](Cc1c[nH]c2ccccc12)NC(=O)[C@@H]1C[C@@H](O)CN1C(=O)C1C(=O)C2(C)CCC1C2(C)C (stereo partly drawn) [Compound 44] | 
31 | 4.9 | 59 | Cc1ccccc1CN(C)C(=O)[C@H](Cc1cn(C)c2ccccc12)NC(=O)[C@@H]1C[C@@H](O)CN1C(=O)C1C(=O)C2(C)CCC1C2(C)C (stereo partly drawn) [Compound 45] | 
32 | 3.2 | 57 | Cc1ccccc1CN(C)C(=O)[C@H](Cc1c[nH]c2ccccc12)NC(=O)[C@@H]1CCCN1C(=O)C1C(=O)C2(C)CCC1C2(C)C (stereo partly drawn) [Compound 47] | 

Row | Compound | IC50 [1, 2] [nM] | IC50 (human NK2 receptor) [nM] | IC50 [1] [nM]
33 | COc1ccccc1N1CCN(C(=O)[C@H](Cc2ccc3ccccc3c2)NC(=O)[C@@H]2C[C@@H](O)CN2C(=O)C2C(O)C3CCN2CC3)CC1 (stereo partly drawn) [Compound 22] |  | 1300 | 25
